Experimental data reported in ChEMBL document CHEMBL5352461, “Discovery of the novel Benzo[b]thiophene 1,1-dioxide derivatives as a potent STAT3 inhibitor against idiopathic pulmonary fibrosis” (Eur J Med Chem, 2023).
The source made the active and inactive calls. The calls are words filed in the database; no cut-off is given here.

Experiments:
[1] = Toxicity in C57BL/6 mouse assessed as spleen lesion at 60 mg/kg, ip by H and E staining based analysis; assay type: organism-based; settings: in vivo
[2] = species on record: Mus musculus; experiment: Antifibrotic activity against bleomycin-induced C57BL/6 mouse lung fibrosis model assessed as reduction in CD11c+MHC II+ in dendritic cells in lung at low dose incubated for 30 mins by flow cytometry analysis ( Rvb = 23.67 %); assay type: functional; set-up: scale not given: the % may be the effect or the level left; settings: 0.5 h
[3] = system: A549; experiment: Antiproliferative activity against TGFbeta-induced human A549 cells assessed as reduction in cell viability incubated for 72 hrs by CCK-8 assay; assay type: functional, cell-based; settings: dose 25-400 nM
[4] = system: Mus musculus; experiment: Antifibrotic activity against bleomycin-induced C57BL/6 mouse lung fibrosis model assessed as inhibition of hydroxyproline content in lung at 60 mg/kg, ip administered for 7 to 14 days; assay type: functional, organism-based; settings: time 7-14 day
[5] = system: A549; experiment: Inhibition of epithelial-mesenchymal transition in TGF-beta1-induced human A549 cells assessed as effect on alpha-SMA by measuring fluorescence intensity at 200 nM incubated for 24 hrs by immunofluorescence assays; assay type: functional, cell-based
[6] = system: NIH3T3; experiment: Antifibrotic activity in TGF-beta1-induced mouse NIH3T3 cells assessed as inhibition of STAT3 phosphorylation at 50 nM incubated for 24 hrs by Western blot analysis; assay type: functional, cell-based
[7] = system: Mus musculus; experiment: Antifibrotic activity against bleomycin-induced C57BL/6 mouse lung fibrosis model assessed as prevention of belomycin-induced alpha-SMA expression in lung at 60 mg/kg, ip by immunohistochemical staining based analysis; assay type: functional, organism-based
[8] = system: Mus musculus; experiment: Antifibrotic activity against bleomycin-induced C57BL/6 mouse lung fibrosis model assessed as prevention of belomycin-induced collagen-1 expression in lung at 60 mg/kg, ip by immunohistochemical staining based analysis; assay type: functional, organism-based
[9] = species on record: Mus musculus; experiment: Antifibrotic activity against bleomycin-induced C57BL/6 mouse lung fibrosis model assessed as reduction in CD4-CD69+ T cell in lung at low dose incubated for 30 mins by flow cytometry analysis ( Rvb = 6.54%); assay type: functional; set-up: scale not given: the % may be the effect or the level left; settings: 0.5 h
[10] = system: A549; experiment: Inhibition of epithelial-mesenchymal transition in human A549 cells assessed as effect on E-cadherin by measuring fluorescence intensity measured for 24 hrs by immunofluorescence assays; assay type: functional, cell-based
[11] = system: A549; experiment: Inhibition of cell migration in TGF-beta1 induced human A549 cells measured for 24 hrs by contrast-phase microscopic analysis; assay type: functional, cell-based
[12] = system: NIH3T3; experiment: Antiproliferative activity against mouse NIH3T3 cells assessed as cell growth inhibition incubated for 72 hrs by CCK-8 assay; assay type: functional, cell-based; settings: dose 6.25-100 nM
[13] = system: A549; experiment: Induction of morphological changes in TGF-beta1 induced human A549 cells assessed as appearance of spindle shape cells at 200 nM measured for 24 hrs by phase contrast microscopy analysis; assay type: functional, cell-based
[14] = species on record: Mus musculus; experiment: Antifibrotic activity against bleomycin-induced C57BL/6 mouse lung fibrosis model assessed as reduction in F4/80+CD11b+ macrophage incubated for 30 mins by flow cytometry analysis; assay type: functional, organism-based
[15] = target: Signal transducer and activator of transcription 3 (Mus musculus) (UniProt P42227); experiment: Binding affinity to STAT3 in mouse NIH3T3 cells assessed as reduction in protein degradation; assay type: cell-based
[16] = Toxicity in C57BL/6 mouse assessed as kidney lesion at 60 mg/kg, ip by H and E staining based analysis; assay type: organism-based; settings: in vivo
[17] = species on record: Mus musculus; experiment: Antifibrotic activity against bleomycin-induced C57BL/6 mouse lung fibrosis model assessed as reduction in F4/80+CD11b+ macrophage in lung at high dose incubated for 30 mins by flow cytometry analysis ( Rvb = 17.96%); assay type: functional; set-up: scale not given: the % may be the effect or the level left; settings: 0.5 h
[18] = system: Mus musculus; experiment: Antifibrotic activity against bleomycin-induced C57BL/6 mouse lung fibrosis model assessed as inhibition of hydroxyproline content in lung at 60 mg/kg, ip; assay type: functional, organism-based
[19] = species on record: Mus musculus; experiment: Antifibrotic activity against bleomycin-induced C57BL/6 mouse lung fibrosis model assessed as reduction in CD4-CD69+ T cell in lung at high dose incubated for 30 mins by flow cytometry analysis ( Rvb = 6.54%); assay type: functional; set-up: scale not given: the % may be the effect or the level left; settings: 0.5 h
[20] = species on record: Mus musculus; experiment: Antifibrotic activity against bleomycin-induced C57BL/6 mouse lung fibrosis model assessed as reduction in CD11c+MHC II+ in dendritic cells incubated for 30 mins by flow cytometry analysis; assay type: functional, organism-based
[21] = system: Mus musculus; experiment: Antifibrotic activity against bleomycin-induced C57BL/6 mouse lung fibrosis model assessed as reduction in STAT3 phosphorylation at Ty705 residue in lung at 60 mg/kg, ip by immunohistochemical staining based analysis; assay type: functional, organism-based
[22] = species on record: Mus musculus; experiment: Antifibrotic activity against bleomycin-induced C57BL/6 mouse lung fibrosis model assessed as reduction in F4/80+CD11b+ macrophage in lung at low dose incubated for 30 mins by flow cytometry analysis ( Rvb = 17.96%); assay type: functional; set-up: scale not given: the % may be the effect or the level left; settings: 0.5 h
[23] = Toxicity in C57BL/6 mouse assessed as liver lesion at 60 mg/kg, ip by H and E staining based analysis; assay type: organism-based; settings: in vivo
[24] = system: Mus musculus; experiment: Antifibrotic activity against bleomycin-induced pulmonary fibrosis C57BL/6 mouse model assessed as reduction in alveolar septa thickness at 60 mg/kg, ip administered for 20 days and measured on 21 day; assay type: functional, organism-based
[25] = system: NIH3T3; experiment: Inhibition of colony formation in mouse NIH3T3 cells assessed as inhibition of cell proliferation incubated for 2 weeks by crystal violet staining based microscopic analysis; assay type: functional; settings: dose <= 100.0 nM
[26] = target: Signal transducer and activator of transcription 3 (Homo sapiens) (UniProt P40763); experiment: Binding affinity to STAT3 in human A549 cells assessed as reduction in protein degradation; assay type: cell-based
[27] = species on record: Mus musculus; experiment: Antifibrotic activity against bleomycin-induced C57BL/6 mouse lung fibrosis model assessed as reduction in CD11c+MHC II+ in dendritic cells in lung at high dose incubated for 30 mins by flow cytometry analysis ( Rvb = 23.67 %); assay type: functional; set-up: scale not given: the % may be the effect or the level left; settings: 0.5 h
[28] = Toxicity in C57BL/6 mouse assessed as heart lesion at 60 mg/kg, ip by H and E staining based analysis; assay type: organism-based; settings: in vivo
[29] = system: NIH3T3; experiment: Antifibrotic activity in TGF-beta1-induced mouse NIH3T3 cells assessed as inhibition of collagen-1 expression at 50 nM incubated for 24 hrs by Western blot analysis; assay type: functional, cell-based
[30] = system: A549; experiment: Inhibition of epithelial-mesenchymal transition in TGF-beta1-induced human A549 cells assessed as effect on E-cadherin by measuring fluorescence intensity at 200 nM incubated for 24 hrs by immunofluorescence assays; assay type: functional, cell-based
[31] = species on record: Mus musculus; experiment: Antifibrotic activity against bleomycin-induced C57BL/6 mouse lung fibrosis model assessed as reduction in CD4-CD69+ T cell incubated for 30 mins by flow cytometry analysis; assay type: functional, organism-based
[32] = system: NIH3T3; experiment: Antiproliferative activity against mouse NIH3T3 cells assessed as cell growth inhibition incubated for 24 to 72 hrs by CCK-8 assay; assay type: functional, cell-based
[33] = system: NIH3T3; experiment: Antifibrotic activity in TGF-beta1-induced mouse NIH3T3 cells assessed as inhibition of alpha-SMA expression at 50 nM incubated for 24 hrs by Western blot analysis; assay type: functional, cell-based
[34] = system: Mus musculus; experiment: Antifibrotic activity against bleomycin-induced pulmonary fibrosis C57BL/6 mouse model assessed as increase in inter-alveolar space at 60 mg/kg, ip administered for 20 days and measured on 21 day; assay type: functional, organism-based
[35] = system: A549; experiment: Inhibition of epithelial-mesenchymal transition in human A549 cells assessed as effect on alpha-SMA by measuring fluorescence intensity measured for 24 hrs by immunofluorescence assays; assay type: functional, cell-based
[36] = system: NIH3T3; experiment: Antiproliferative activity against TGFbeta-induced mouse NIH3T3 cells assessed as cell viability at 6.25 to 100 nM incubated for 24 to 72 hrs by CCK-8 assay; assay type: functional, cell-based; settings: dose 6.25-100 nM, time 24-72 hrs
[37] = system: A549; experiment: Antiproliferative activity against TGFbeta-induced human A549 cells assessed as reduction in cell viability at 200 nM incubated for 72 hrs by CCK-8 assay; assay type: functional

Signal transducer and activator of transcription 3 (Homo sapiens), sequence (P40763 whole entry): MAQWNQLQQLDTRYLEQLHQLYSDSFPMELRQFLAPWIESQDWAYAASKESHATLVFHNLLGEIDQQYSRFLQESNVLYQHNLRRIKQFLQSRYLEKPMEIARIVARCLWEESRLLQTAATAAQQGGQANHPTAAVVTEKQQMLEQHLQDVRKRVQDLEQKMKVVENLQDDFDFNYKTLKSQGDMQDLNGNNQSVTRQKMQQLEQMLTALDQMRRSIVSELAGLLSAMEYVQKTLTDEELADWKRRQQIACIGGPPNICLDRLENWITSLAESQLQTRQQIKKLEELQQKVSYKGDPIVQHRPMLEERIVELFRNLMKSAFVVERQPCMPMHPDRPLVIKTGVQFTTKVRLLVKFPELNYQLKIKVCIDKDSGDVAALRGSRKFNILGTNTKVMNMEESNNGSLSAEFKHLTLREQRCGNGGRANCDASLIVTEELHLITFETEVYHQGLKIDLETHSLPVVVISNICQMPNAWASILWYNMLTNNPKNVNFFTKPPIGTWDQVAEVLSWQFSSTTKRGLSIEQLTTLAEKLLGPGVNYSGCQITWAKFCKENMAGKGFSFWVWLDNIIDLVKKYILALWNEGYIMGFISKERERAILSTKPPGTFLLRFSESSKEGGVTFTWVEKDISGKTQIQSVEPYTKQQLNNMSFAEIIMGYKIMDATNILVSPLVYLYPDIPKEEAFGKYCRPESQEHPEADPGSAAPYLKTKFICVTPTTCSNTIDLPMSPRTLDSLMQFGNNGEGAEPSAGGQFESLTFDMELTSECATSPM
Signal transducer and activator of transcription 3 (Mus musculus), sequence (P42227 whole entry): as the sequence (P40763 whole entry) above, with E760D counted along it

O=C(C1=Cc2ccccc2S1(=O)=O)N1CCN(Cc2cc(F)c(F)cc2F)CC1
Activity [1]: Non-Toxic | Activity [2]: 12.37% | Activity [3]: Dose-Dependent Effect | Activity [4]: Active | inhibition [5]: Active | Activity [6]: Active | Activity [7]: Active | Activity [8]: Active | Activity [9]: 0.65% | inhibition [10]: Active | inhibition [11]: Active | Activity [12]: Dose-Dependent Effect | Activity [13]: Active | Activity [14]: Active | Activity [15]: Active | Activity [16]: Non-Toxic | Activity [17]: 10.45% | Activity [18]: Active | Activity [19]: 2.84% | Activity [20]: Active | Activity [21]: Active | Activity [22]: 6.93% | Activity [23]: Non-Toxic | Activity [24]: Active | inhibition [25]: Dose-Dependent Effect | Activity [26]: Active | Activity [27]: 9.28% | Activity [28]: Non-Toxic | Activity [29]: Active | inhibition [30]: Active | Activity [31]: Active | IC50 [32]: 470 nM | Activity [33]: Active | Activity [34]: Active | inhibition [35]: Active | Activity [36]: Active | Activity [37]: 50%
